Structures are written as SMILES.

In general, Ki refers to the dissociation constant of the complex between target and ligand, obtained from inhibition or displacement. Low readings indicate a stronger hold on the target, high ones a looser hold on the target.

This assay concerns the target T1, Dimer of Gag-Pol polyprotein [489-587] (Human immunodeficiency virus 1, UniProt P12497).
T1 construct: 489-587
Nature of the assay: Protease Inhibition Assay. Conditions: pH 6; 37 °C. How it is done: Sensitivity of HIV-1 protease activity to protease inhibitors was determined by a peptide substrate cleavage assay. Substrates and cleavage fragments were separated by reverse-phase HPLC, detected by absorbance at 215 nm, and quantified by comparison with a synthetic product standard.
`CSC[C@H](NC(=O)COc1cccc2cnccc12)C(=O)N[C@@H](Cc1ccccc1)[C@H](O)C(=O)N1CSC(C)(C)[C@H]1C(=O)NC(C)(C)C` displayed a Ki of 0.088 nM.
`CSC[C@H](NC(=O)COc1cccc2cnccc12)C(=O)N[C@@H](Cc1ccccc1)[C@H](O)C(=O)N1CSC[C@H]1C(=O)NC(C)(C)C` [Kynostatin 272] yielded a Ki of 0.74 nM.
`CCc1c(O)cccc1C(=O)N[C@@H](Cc1ccccc1)[C@H](O)C(=O)N1CSC(C)(C)[C@H]1C(=O)NCc1ccccc1C` [(R)-N-(2-Methylbenzyl)-3-[(2S,3S)-3-(2-ethyl-3-hydroxybenzoyl)amino-2-hydroxy-4-phenylbutanoyl]-5,5-methyl-1,3-thiazolidine-4-carboxamide] returned an inhibition constant (Ki) of 0.16 nM.

The values are drawn from BindingDB's records for doi:10.1021/jm980637h (Japan Energy, 1999).
